This note sets out measurements from ChEMBL document CHEMBL4052641 (Eur J Med Chem, 2017).

Data set [1] has as its target T1, Xanthine dehydrogenase/oxidase (Bos taurus, UniProt P80457). Description: Inhibition of bovine milk xanthine oxidase assessed as reduction in uric acid formation using xanthine as substrate preincubated for 3 hrs followed by substrate addition by UV-Vis spectrophotometric assay.
Data set [2] addresses T1, Xanthine dehydrogenase/oxidase. Description: Inhibition of bovine milk xanthine oxidase assessed as reduction in uric acid formation using xanthine as substrate preincubated for 5 mins followed by substrate addition by UV-Vis spectrophotometric assay.
For data set [3] the target is unchanged. Description: Potency index, ratio of allopurinol IC50 to compound IC50 for bovine milk xanthine oxidase. Particulars: cattle.
Data set [4] deals with T2, Xanthine dehydrogenase/oxidase (Homo sapiens, UniProt P47989). Description: Inhibition of xanthine oxidase (unknown origin) assessed as reduction in uric acid formation using xanthine as substrate after 30 mins by UV-Vis spectrophotometric assay.
T2 sequence (P47989 whole entry): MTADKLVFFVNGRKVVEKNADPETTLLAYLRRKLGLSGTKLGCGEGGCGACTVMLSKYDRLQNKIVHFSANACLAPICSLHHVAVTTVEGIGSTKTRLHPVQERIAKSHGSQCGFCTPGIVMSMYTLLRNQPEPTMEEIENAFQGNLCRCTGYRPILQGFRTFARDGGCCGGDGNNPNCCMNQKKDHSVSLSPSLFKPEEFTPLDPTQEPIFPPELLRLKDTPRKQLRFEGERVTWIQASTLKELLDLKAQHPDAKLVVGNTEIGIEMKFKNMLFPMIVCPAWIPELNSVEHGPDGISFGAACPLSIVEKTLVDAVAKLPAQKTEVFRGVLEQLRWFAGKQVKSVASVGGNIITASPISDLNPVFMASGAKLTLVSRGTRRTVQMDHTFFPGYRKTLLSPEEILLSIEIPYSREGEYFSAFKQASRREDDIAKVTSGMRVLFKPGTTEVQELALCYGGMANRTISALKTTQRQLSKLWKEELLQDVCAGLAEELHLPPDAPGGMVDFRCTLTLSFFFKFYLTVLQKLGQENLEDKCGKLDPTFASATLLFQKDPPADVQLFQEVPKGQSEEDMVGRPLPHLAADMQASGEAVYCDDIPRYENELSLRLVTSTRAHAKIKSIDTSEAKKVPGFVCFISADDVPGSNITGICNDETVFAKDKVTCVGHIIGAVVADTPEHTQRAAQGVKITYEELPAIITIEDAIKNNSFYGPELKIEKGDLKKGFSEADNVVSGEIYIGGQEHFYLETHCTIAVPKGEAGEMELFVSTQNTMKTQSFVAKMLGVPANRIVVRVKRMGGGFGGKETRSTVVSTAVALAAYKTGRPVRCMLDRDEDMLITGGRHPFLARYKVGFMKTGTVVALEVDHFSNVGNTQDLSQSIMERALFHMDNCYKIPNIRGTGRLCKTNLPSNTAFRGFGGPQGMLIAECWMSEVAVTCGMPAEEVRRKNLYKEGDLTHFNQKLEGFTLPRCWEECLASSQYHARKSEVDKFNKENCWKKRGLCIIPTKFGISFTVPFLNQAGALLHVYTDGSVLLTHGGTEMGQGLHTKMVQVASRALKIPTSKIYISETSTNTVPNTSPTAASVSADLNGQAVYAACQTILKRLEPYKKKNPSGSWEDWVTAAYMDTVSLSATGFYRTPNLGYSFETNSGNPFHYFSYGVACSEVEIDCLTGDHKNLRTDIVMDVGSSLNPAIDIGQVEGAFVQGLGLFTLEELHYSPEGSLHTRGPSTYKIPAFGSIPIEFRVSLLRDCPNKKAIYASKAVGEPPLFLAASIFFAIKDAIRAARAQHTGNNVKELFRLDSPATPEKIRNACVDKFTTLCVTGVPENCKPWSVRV
Data set [5] concerns the target T2, Xanthine dehydrogenase/oxidase. Description: Potency index, ratio of allopurinol IC50 to compound IC50 for xanthine oxidase (unknown origin).
The nature of data set [6]: Potency index, ratio of allopurinol IC50 to compound IC50 for butter milk xanthine oxidase (unknown origin).
Data set [7] is described as follows: Inhibition of butter milk xanthine oxidase (unknown origin) assessed as reduction in uric acid formation using xanthine as substrate by UV-Vis spectrophotometric assay.
A short description of data set [8]: Potency index, ratio of quercetin IC50 to compound IC50 for butter milk xanthine oxidase (unknown origin).
A short description of data set [9]: Inhibition of butter milk xanthine oxidase (unknown origin) assessed as reduction in uric acid formation using xanthine as substrate by spectrophotometric assay.
In data set [10] the target is T2, Xanthine dehydrogenase/oxidase. Description: Inhibition of xanthine oxidase (unknown origin) using xanthine as substrate measured at every 1 mins up to 5 mins.
The target in data set [11] is T1, Xanthine dehydrogenase/oxidase. Description: Potency index, ratio of apigenin IC50 to compound IC50 for bovine milk xanthine oxidase. Particulars: cattle.
Data set [12] has as its target T2, Xanthine dehydrogenase/oxidase. Description: Inhibition of xanthine oxidase (unknown origin) assessed as reduction in uric acid formation using xanthine as substrate after 10 mins.
Data set [13] shares this target. Description: Inhibition of xanthine oxidase (unknown origin) assessed as reduction in uric acid formation using xanthine as substrate after 4 mins by UV-Vis spectrophotometric assay.
Data set [14] concerns the target T1, Xanthine dehydrogenase/oxidase. Description: Inhibition of bovine milk xanthine oxidase assessed using xanthine as substrate after 10 mins by fluorometric assay.
Data set [15] has the same target. Description: Inhibition of bovine milk xanthine oxidase assessed as reduction in uric acid formation using xanthine as substrate preincubated for 3 hrs followed by substrate addition measured after 1 min by UV spectrophotometric assay.
Data set [16] has as its target T2, Xanthine dehydrogenase/oxidase. Description: Non-competitive inhibition of human xanthine oxidase.
Data set [17] is described as follows: Inhibition of butter milk xanthine oxidase (unknown origin) assessed as reduction in uric acid formation using xanthine as substrate by double beam spectrophotometric assay.
Data set [18] concerns the target T1, Xanthine dehydrogenase/oxidase. Description: Competitive inhibition of bovine milk xanthine oxidoreductase assessed as reduction in uric acid formation by spectrophotometric assay.

T1 sequence (P80457 whole entry): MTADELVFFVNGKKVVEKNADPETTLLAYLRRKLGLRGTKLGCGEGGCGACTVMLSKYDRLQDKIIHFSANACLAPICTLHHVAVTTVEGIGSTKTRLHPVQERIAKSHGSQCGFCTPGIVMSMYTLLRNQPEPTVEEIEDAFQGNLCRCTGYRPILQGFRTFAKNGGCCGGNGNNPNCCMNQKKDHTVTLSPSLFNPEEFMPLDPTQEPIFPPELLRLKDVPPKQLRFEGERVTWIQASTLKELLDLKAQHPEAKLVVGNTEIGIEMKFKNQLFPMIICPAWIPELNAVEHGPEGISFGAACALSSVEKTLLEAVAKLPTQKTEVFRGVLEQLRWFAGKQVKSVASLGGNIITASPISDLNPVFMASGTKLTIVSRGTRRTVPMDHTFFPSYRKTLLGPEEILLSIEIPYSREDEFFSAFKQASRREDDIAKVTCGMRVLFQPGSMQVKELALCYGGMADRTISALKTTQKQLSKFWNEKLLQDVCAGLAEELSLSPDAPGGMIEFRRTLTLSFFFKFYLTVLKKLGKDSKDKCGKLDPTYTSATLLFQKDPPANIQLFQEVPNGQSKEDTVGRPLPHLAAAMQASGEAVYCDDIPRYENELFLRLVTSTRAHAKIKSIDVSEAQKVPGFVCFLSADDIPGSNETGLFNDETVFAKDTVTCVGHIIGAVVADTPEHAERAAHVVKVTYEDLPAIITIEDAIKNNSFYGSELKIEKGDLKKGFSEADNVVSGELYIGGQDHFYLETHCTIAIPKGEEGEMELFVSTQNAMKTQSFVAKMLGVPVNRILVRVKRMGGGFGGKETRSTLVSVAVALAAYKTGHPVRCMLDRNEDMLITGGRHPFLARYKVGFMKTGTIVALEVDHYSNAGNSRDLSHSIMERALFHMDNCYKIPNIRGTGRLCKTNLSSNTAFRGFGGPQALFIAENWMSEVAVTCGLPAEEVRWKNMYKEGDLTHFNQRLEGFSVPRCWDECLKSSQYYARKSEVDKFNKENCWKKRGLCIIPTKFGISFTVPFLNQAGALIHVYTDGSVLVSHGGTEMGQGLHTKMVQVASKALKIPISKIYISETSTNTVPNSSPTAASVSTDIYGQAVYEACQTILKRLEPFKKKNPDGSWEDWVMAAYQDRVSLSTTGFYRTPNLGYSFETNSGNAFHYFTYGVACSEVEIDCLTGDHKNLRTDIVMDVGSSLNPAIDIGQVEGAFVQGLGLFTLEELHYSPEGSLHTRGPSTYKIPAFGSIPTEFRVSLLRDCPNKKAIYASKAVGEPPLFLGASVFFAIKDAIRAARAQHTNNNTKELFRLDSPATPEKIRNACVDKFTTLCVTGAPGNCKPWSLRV

Consider `O=c1cc(-c2ccc(O)cc2)oc2cc(O)cc(O)c12` [APIGENIN], for which, in [1], the IC50 worked out at 3570 nM.
With `O=c1nc(-c2ccc(Cl)cc2)cc(-c2ccc(Cl)cc2)[nH]1`, the IC50 in [2] came out at 12000 nM. The “Ratio IC50” value in [3] was 1.02.
Turning to `Oc1c(Cl)cc(Cl)cc1C1Nc2ccccc2-c2cc(-c3ccccc3)nn21` (stereo not drawn), the IC50 in data set [4] stood at 11000 nM. For the same compound, in data set [5], the “Ratio IC50” value was found to be 2.89.
On to `CCCCCCSc1nc2c(=O)[nH]c(O)nc2[nH]1`, for which the Ratio IC50 in data set [6] came out at 6.36. Moreover, the IC50 in data set [7] was found to be 660 nM.
`O=C(/C=C/c1ccc2c(c1)O[C@@H](c1ccc(O)c(O)c1)[C@@H](C(=O)O)O2)O/C=C\c1ccc(O)c(O)c1`: the Ratio IC50 in data set [8] was found to be 1.02. For the same compound, the IC50 in data set [9] lay within 5200 to 28200 nM.
In the case of `CCCCSc1nc(O)c2[nH]cnc2n1`, the Ratio IC50 in data set [6] was 1.08. Also, the IC50 in [7] turned out to be 3880 nM.
Turning to `CCCCCCSc1nc2c(=O)[nH]cnc2[nH]1`, the Ratio IC50 in data set [6] is 7.5. Further, the IC50 in [7] worked out at 560 nM.
`C=CCc1cc(O)c(O)cc1C(C=C)c1ccc(O)c(O)c1` (stereo not drawn) gave an IC50 in data set [10] of 280 nM. Besides, the “Ratio IC50” value in data set [5] turned out to be 25.21.
Regarding `CCCCCOC(=O)C(=O)Nc1[nH]cnc1C(N)=O`, the Ratio IC50 in [6] came out at 2.19. For the same compound, the IC50 in [7] was 1920 nM.
Take `O=c1cc(-c2ccccc2)oc2cc(O)cc(O)c12` [CHRYSIN]: the “Ratio IC50” value in data set [3] is recorded as 2.33; in data set [11] it was 2.83. For the same compound, the IC50 in [1] stood at 1260 nM.
On to `O=C1CC(c2ccc(O)c(-c3c(O)cc(O)c4c3OC(c3ccc(O)cc3)CC4=O)c2)Oc2cc(O)cc(O)c21` (stereo not drawn), for which the IC50 in [12] stood at 92 nM. For the same compound, the “Ratio IC50” value in data set [5] worked out at 1.09.
Regarding `O=C(/C=C/c1ccc2c(c1)O[C@H](C(=O)O)[C@H](c1ccc(O)c(O)c1)O2)O/C=C\c1ccc(O)c(O)c1`, in data set [8], the Ratio IC50 was found to be 8.83. The IC50 in data set [9] lay in the range of 600 to 1100 nM.
`O=c1cc(-c2ccc(-c3ccccc3)cc2)oc2cc(O)ccc12`: the Ratio IC50 in [8] was in the range of 1.1 to 1.74. The IC50 in [9] turned out to be 347 nM.
For the compound `O=C(/C=C/c1ccc2c(c1)O[C@H](c1ccc(O)c(O)c1)[C@@H](C(=O)O)O2)O/C=C\c1ccc(O)c(O)c1`, the Ratio IC50 in data set [8] amounted to 2.65. The IC50 in data set [9] lay within 2000 to 4220 nM.
In the case of `C=CCc1ccc(O)c(O)c1` [HYDROXYCHAVICOL], the “Ratio IC50” value in data set [5] is recorded as 1.84. Also, the IC50 in data set [13] was determined as 16700 nM.
For the compound `CCCCCCOC(=O)C(=O)Nc1[nH]cnc1C(N)=O`, the Ratio IC50 in data set [6] came out at 3.78. Moreover, the half-inhibitory concentration (IC50) in data set [7] turned out to be 1110 nM.
For `CC1(C)C=Cc2cc(C(=O)/C=C/c3ccc(O)c(O)c3)c(O)cc2O1`, the IC50 in data set [10] was 1800 nM. Moreover, the “Ratio IC50” value in data set [5] stood at 1.11.
On to `Oc1ncnc2[nH]ncc12` [ALLOPURINOL], for which the IC50 in [9] came out at 5300 nM.
Take `O=c1cc(-c2ccc(O)c(O)c2)oc2cc(O)cc(O)c12` [LUTEOLIN]: the “Ratio IC50” value in data set [3] came out at 25.32. The same compound returned an IC50 in data set [14] of 10200 nM.
Consider `Oc1nc(-c2ccccc2)cc(-c2ccccc2)n1`, for which the IC50 in [2] turned out to be 10200 nM. In addition, in data set [3], the “Ratio IC50” value came to 1.2.
`O=c1c(-c2ccc(O)cc2)coc2cc(O)cc(O)c12` [GENISTEIN]: the “Ratio IC50” value in data set [3] was 2.04. In addition, the IC50 in data set [15] came to 1730 nM.
For the compound `O=c1nc(-c2ccncc2)cc(-c2cccc3ccccc23)[nH]1`, in data set [2], the IC50 was found to be 11200 nM. Moreover, the “Ratio IC50” value in data set [3] is 1.09.
Regarding `O=c1nc(-c2ccncc2)cc(-c2ccco2)[nH]1`, in data set [2], the concentration for half-maximal inhibition (IC50) is 7230 nM. The “Ratio IC50” value in [3] is listed as 1.69.
In turn, `Cc1nc(-c2ccc(OCC(C)C)c(C#N)c2)sc1C(=O)O` [FEBUXOSTAT] returned a Ki in data set [16] of 0.1 nM.
For the compound `O=[N+]([O-])c1cccc(C2Nc3ccccc3-c3cc(-c4ccccc4)nn32)c1` (stereo not drawn), in [4], the half-maximal inhibitory concentration (IC50) was determined as 20900 nM. For the same compound, the “Ratio IC50” value in data set [5] was found to be 1.51.
On to `O=c1c(O)c(-c2ccc(O)c(O)c2)oc2cc(O)cc(O)c12` [QUERCETIN], for which the IC50 is 383 nM in [9] and 400 nM in data set [17].
Compound `CC(C)=CCc1cc(C(=O)/C=C/c2ccc(O)c(O)c2)c(O)cc1O` [BROUSSOCHALCONE A] had an IC50 in data set [10] of 600 nM. The “Ratio IC50” value in data set [5] is reported as 3.33.
Regarding `O=c1nc(-c2ccncc2)cc(-c2cccs2)[nH]1`, the IC50 in data set [2] was found to be 6450 nM. Further, the “Ratio IC50” value in data set [3] is reported as 1.9.
With `CC(C)(C)c1ccc(-c2cc(=O)c3c(O)cc(O)cc3o2)cc1`, in data set [8], the Ratio IC50 was 4.22. The IC50 in data set [9] is 90.8 nM.
The corresponding values for `COc1ccc(-c2cc(=O)c3c(O)cc(O)cc3o2)cc1` [ACACETIN] are 1.74 and 220 nM.
`O=c1cc(-c2ccc(-c3ccccc3)cc2)oc2cc(O)cc(O)c12`: the Ratio IC50 in data set [8] turned out to be 28.2. The IC50 in data set [9] worked out at 13.6 nM.
As for `O=c1cc(-c2cccnc2)[nH]c2ccccc12`, the IC50 in data set [2] worked out at 6240 nM. Besides, the “Ratio IC50” value in data set [3] is 1.33.
Consider `COCCCCSc1nc2[nH]cnc2c(=O)[nH]1`, for which, in [6], the Ratio IC50 came to 150. Moreover, the IC50 in [7] was 28 nM.
As to `CCCOCCSc1nc2[nH]cnc2c(=O)[nH]1`, the Ratio IC50 in data set [6] amounted to 6.27. Also, in data set [7], the IC50 was found to be 670 nM.
On to `O=c1cc(-c2ccccc2)oc2cc(O)c(O)c(O)c12` [BAICALEIN], for which the “Ratio IC50” value in data set [3] is recorded as 3.61. The IC50 in data set [14] was 71500 nM.
Turning to `O=c1oc2c(O)ccc(-c3oc4cc(O)cc(O)c4c(=O)c3O)c2s1`, the Ratio IC50 in data set [8] was 8. Also, in data set [17], the IC50 was 50 nM.
In the case of `CCOCCCSc1nc2[nH]cnc2c(=O)[nH]1`, in [6], the Ratio IC50 is 72.4. Also, in [7], the IC50 came out at 58 nM.
For the compound `N#Cc1cc(-c2n[nH]c(-c3ccncc3)n2)ccn1` [TOPIROXOSTAT], in data set [18], the inhibition constant (Ki) is 5.7 nM.
